Read-outs that look alike come from different tables or passages of the source.
Assays:
[1] = Pharmacokinetic studies in mice after IP dosing; format: in vivo; settings: 70 mg/kg IP, male C57BL/6J mice, plasma
Experimental: Twenty-one male C57BL/6J mice were dosed IP with 70 mg/kg PS-10, 0.2 ml/mouse formulated as 10% DMSO/20% water/70% of 25% (2-hydroxypropyl)-β-cyclodextrin for determination of PS-10 PK. Twenty-one female CD-1 mice were dosed IP with 20 mg/kg PS-8, 0.2 ml/mouse formulated as 5% ethanol and 95% of 0.1 M sodium bicarbonate pH 9.0 for determination of PS-8 PK. Animal (n=3) were sacrificed and whole blood was harvested for each time point. Plasma was processed from whole blood by centrifugation of the ACD treated blood for 10′ at 10,000 rpm in a standard centrifuge. The analytical processing of blood samples and pharmacokinetics studies using LC/MS/MS were as described previously with LC/MS/MS methods optimized for detection of PS-10 and PS-8 (33).

[2] = test system: HeLa cells; settings: read-out: IC50 for the growth inhibition of HeLa cells
[3] = molecular target: PDK2 (Homo sapiens, UniProt Q15119); assay: Assay for inhibition of PDK activity, PDK2; format: biochemical; set-up: made in house
Experimental: Recombinant human PDK2 was expressed and purified as a N terminal His6-tagged SUMO fusion protein with a tobacco-etch-virus protease (TEV) cleavage site in front of the N-terminal PDK2 sequence (26), and was used directly for the activity assay and binding affinity analyses. […] The purified protein was concentrated to 35-40 mg/ml and stored at −80° C. in small aliquots. Recombinant human PDK1, PDK3 and PDK4 were expressed and purified as described previously (26).
The remaining steps were described previously (26). IC50 values were obtained by the curve fitting of inhibition isotherms using Prism 6 (GraphPad software, Inc.).

[4] = test system: phosphorylated E1α subunit; assay: Western blotting of phosphorylated E1α subunit in tissues of DIO mice; format: in vivo; settings: single dose 70 mg/kg IP, 10 h
Experimental: Six- to eight-week old C57BL/6J male mice were obtained from the local campus breeding colony at UT Southwestern Medical Center (Dallas, Tex.) and randomized into two groups: vehicle- and PS10-treated. Prior to the treatment, mice were fed with a 60% high-fat diet, which contained 32% saturated and 68% unsaturated fat (catalog number: D12492, Research Diet Inc. New Brunswick, N.J.), for eight to ten weeks to produce DIO animals. PS-10 was dissolved in 100% DMSO and then diluted to make a 10% DMSO aqueous solution containing 17.5% (w/v) (2-hydroxypropyl)-β-cyclodextrin for delivery. Animals were dosed at mid-day by intraperitoneal (IP) injections at 70 mg/kg using 1-ml syringe and 30-gauge needle. The length of the treatment is indicted in each experiment. At 10 h after the last injection, animals were euthanized using carbon dioxide asphyxiation followed by cervical dislocation and dissection. Blood was harvested by cardiac puncture and stored on ice. Acidified citrate dextrose (ACD) was used as an anticoagulant. Immediately after blood collection, heart, liver, kidneys and both hind-leg quadriceps muscles were removed and snap frozen in liquid nitrogen. Average ischemia time before organ harvest was about 2 to 3 min. Blood was centrifuged in an Eppendorf 5415R refrigerated microcentrifuge at 9,300×g for 5 min to isolate plasma, which was subsequently stored at −80° C. […]

[5] = test system: DIO mice; assay: Glucose tolerance test in DIO mice; format: in vivo; settings: 70 mg/kg/day IP for 4 weeks, 1.5 g/kg glucose challenge
Experimental: (§1) Six- to eight-week old C57BL/6J male mice were obtained from the local campus breeding colony at UT Southwestern Medical Center (Dallas, Tex.) and randomized into two groups: vehicle- and PS10-treated. Prior to the treatment, mice were fed with a 60% high-fat diet, which contained 32% saturated and 68% unsaturated fat (catalog number: D12492, Research Diet Inc. New Brunswick, N.J.), for eight to ten weeks to produce DIO animals. PS-10 was dissolved in 100% DMSO and then diluted to make a 10% DMSO aqueous solution containing 17.5% (w/v) (2-hydroxypropyl)-β-cyclodextrin for delivery. Animals were dosed at mid-day by intraperitoneal (IP) injections at 70 mg/kg using 1-ml syringe and 30-gauge needle. The length of the treatment is indicted in each experiment. At 10 h after the last injection, animals were euthanized using carbon dioxide asphyxiation followed by cervical dislocation and dissection. Blood was harvested by cardiac puncture and stored on ice. Acidified citrate dextrose (ACD) was used as an anticoagulant. Immediately after blood collection, heart, liver, kidneys and both hind-leg quadriceps muscles were removed and snap frozen in liquid nitrogen. Average ischemia time before organ harvest was about 2 to 3 min. Blood was centrifuged in an Eppendorf 5415R refrigerated microcentrifuge at 9,300×g for 5 min to isolate plasma, which was subsequently stored at −80° C.
Mice were fasted for 6 hours after compound treatment. Ten hours after compound administration, 1.5 g/kg of glucose was delivered intraperitoneally to mice. Tail vein serum samples were collected immediately before and 15, 30, 60 and 120 minutes after the glucose challenge. The glucose levels in serum samples were determined by a glucose meter.

[6] = test system: DIO mice; assay: Histochemistry of the liver (Oil Red O) of DIO mice; format: in vivo; settings: 70 mg/kg/day
Experimental: Histological examination of the liver was performed in the institutional Immunohistochemistry Laboratory. Liver tissue was dissected, grossly trim then fixed by immersion for 48 hrs in 4% Formalin/PBS (4% […], 137 mM NaCl, 2.7 mM KCl and 10 mM phosphate buffer, pH 7.5) at 4° C. Liver samples were then transferred to 10% (w/v) sucrose in PBS and incubate at 4° C. for 24 hrs. Tissues were incubated in 18% sucrose in PBS at 4° C. for 24 hours. Finally, samples were transferred to a fresh 18% sucrose solution and embedded in OCT (Optimal cutting temperature compound), cryo-sectioned and stained with Oil Red O.

[7] = test system: mature SREBP-1c; assay: Hepatic nuclear mature SREBP-1c protein level in PDK inhibitor-treated DIO mice; format: in vivo; settings: 40 mg/kg/day by mini-pumps for 5 days
[8] = molecular target: PDK3 (Homo sapiens, UniProt Q15120); assay: Assay for inhibition of PDK activity, PDK3; format: biochemical; set-up: made in house; settings: absence of E2/E3BP core (−)
Experimental: Recombinant human PDK2 was expressed and purified as a N terminal His6-tagged SUMO fusion protein with a tobacco-etch-virus protease (TEV) cleavage site in front of the N-terminal PDK2 sequence (26), and was used directly for the activity assay and binding affinity analyses. For crystallization, the protein was subjected to a TEV-protease digestion, and the untagged PDK2 protein was purified on a Superdex 200 column in 20 mM Tris-HCl (pH 8.0), 150 mM NaCl and 5 mM DTT. The purified protein was concentrated to 35-40 mg/ml and stored at −80° C. in small aliquots. Recombinant human PDK1, PDK3 and PDK4 were expressed and purified as described previously (26).
. The remaining steps were described previously (26). IC50 values were obtained by the curve fitting of inhibition isotherms using Prism 6 (GraphPad software, Inc.).

[9] = Food intake, body weight and fat mass of DIO mice; format: in vivo; settings: 70 mg/kg/day
Experimental: as §1

Sequence of PDK3 (Q15120 whole entry, the tested form may be a part): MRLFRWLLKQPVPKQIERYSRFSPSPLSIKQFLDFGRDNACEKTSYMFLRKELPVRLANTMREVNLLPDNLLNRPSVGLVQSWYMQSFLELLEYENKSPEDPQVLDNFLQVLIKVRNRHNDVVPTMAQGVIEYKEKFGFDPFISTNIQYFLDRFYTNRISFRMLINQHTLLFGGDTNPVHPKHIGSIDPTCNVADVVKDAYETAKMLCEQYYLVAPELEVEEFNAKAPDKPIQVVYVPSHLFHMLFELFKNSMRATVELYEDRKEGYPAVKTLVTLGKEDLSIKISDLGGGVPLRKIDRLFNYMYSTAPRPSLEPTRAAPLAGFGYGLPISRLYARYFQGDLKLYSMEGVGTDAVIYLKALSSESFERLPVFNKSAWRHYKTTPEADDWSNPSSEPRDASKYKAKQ

O=S(=O)(c1ccc(O)cc1O)N1Cc2cc(O)cc(O)c2C1 [PS10, 2-((2,4-dihydroxyphenyl)sulfonyl)isoindoline-4,6-diol]
CL/F [1]: 0.741 mL/min | AUC(0-t) ([1]; mouse): 31800 ng·h/mL | Cmax ([1]; mouse): 32400 ng/mL | Tmax ([1]; mouse): 0.167 h | half-life ([1]; mouse, read-out: Terminal T1/2): 2.68 h | Vd/F ([1]; mouse, read-out: Vz/F): 0.172 L | IC50 [2]: 284 µM | IC50 ([3]; Table 1, inhibitor 31.6 nM to 1 mM, read-out: IC50, μM for PDK2): 0.8 µM | IC50 ([3]; absence of E2/E3BP core (−), read-out: IC50 for PDK2): 0.8 µM | amounts of the phosphorylated E1α subunit in heart and liver vs vehicle-treated [4]: significantly decreased | plasma glucose level at 0 min [5]: 168 mg/dL | plasma glucose level at 30 min [5]: 312 mg/dL | plasma glucose level at 120 min [5]: 163 mg/dL | fat in the liver, Oil Red O stain [6]: larger amounts of fat were present in the liver of the vehicle-treated DIO mice compared with PS10-treated | protein level of nuclear mature SREBP-1c [7]: unchanged | IC50 [8]: 21.3 µM | body weight vs vehicle-treated [9]: no significant differences | fat-mass vs vehicle-treated [9]: reduction | food intake vs vehicle-treated [9]: no significant differences
